According to PMC4157719, “Arabidopsis membrane-associated acyl-CoA-binding protein ACBP1 is involved in stem cuticle formation” (Journal of Experimental Botany, 2014):
Like-named read-outs stand apart in the source and are kept apart here.

Biological target: T1, rACBP1 ((His)6-tagged recombinant AtACBP1) (Arabidopsis thaliana, UniProt Q9SM23)
T1 construct: gene ACBP1; (His)6-tagged, soluble fraction of E. coli BL21(DE3), Ni-NTA purified
T1 sequence (Q9SM23 1-338): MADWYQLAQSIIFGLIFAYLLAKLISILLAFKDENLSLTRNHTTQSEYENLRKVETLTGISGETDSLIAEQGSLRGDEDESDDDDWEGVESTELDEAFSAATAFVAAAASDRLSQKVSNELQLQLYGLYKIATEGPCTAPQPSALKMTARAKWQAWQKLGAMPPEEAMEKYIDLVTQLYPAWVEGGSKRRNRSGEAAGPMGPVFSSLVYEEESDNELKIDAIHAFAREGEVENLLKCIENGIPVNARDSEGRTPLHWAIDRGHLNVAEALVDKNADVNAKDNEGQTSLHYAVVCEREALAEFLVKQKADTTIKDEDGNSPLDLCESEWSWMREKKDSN
Assay: isothermal titration calorimetry
Type: binding
Excerpt: isothermal titration calorimetry on rACBP1 ((His)6-tagged recombinant AtACBP1)

[1] = 30 °C, single binding site model

Compound	Kd [nM]	Kd [1] [nM]
C18:1-CoA	–	760 ± 150
CCCCCCCCCCCCCCCCCCCCCCCCC(=O)SCCNC(=O)CCNC(=O)[C@H](O)C(C)(C)COP(=O)(O)OP(=O)(O)OC[C@H]1O[C@@H](n2cnc3c(N)ncnc32)[C@H](O)[C@@H]1OP(=O)(O)O [C25:0, C25:0-CoA]	1690 ± 110	–
C18:2-CoA	–	830 ± 40
C18:3-CoA	–	440 ± 10

Continued, values first:

Kd [nM]	Kd [1] [nM]	Compound
2140 ± 130	–	CCCCCCCCCCCCCCCCCCCCCCCC(=O)SCCNC(=O)CCNC(=O)[C@H](O)C(C)(C)COP(=O)(O)OP(=O)(O)OC[C@H]1O[C@@H](n2cnc3c(N)ncnc32)[C@H](O)[C@@H]1OP(=O)(O)O [C24:0, C24:0-CoA]
1940 ± 120	–	CCCCCCCCCCCCCCCCCCCCCCCCCC(=O)SCCNC(=O)CCNC(=O)[C@H](O)C(C)(C)COP(=O)(O)OP(=O)(O)OC[C@H]1O[C@@H](n2cnc3c(N)ncnc32)[C@H](O)[C@@H]1OP(=O)(O)O [C26:0, C26:0-CoA]
